Experimental data reported in US20250032403A1, “COMPOSITIONS FOR TREATING PERIODONTAL DISEASES” (GR Biosystems, Inc., priority 2017, published 2025).

Legend:
HGF-1 cells = assay: Cell viability of HGF-1 cells incubated with deferoxamine; format: cell-based, human; details: HGF-1, deferoxamine 50, 100, 150 μM
Experimental: To better characterize the effectiveness of an iron chelator in regulating the upregulation of MMPs, HGF-1 cells were incubated with varying therapeutically relevant concentrations of deferoxamine (50, 100, 150 μM).

MMP-2 = assay: Western blot of MMP-2 in HGF-1 cells treated with FAC, CMK or deferoxamine; format: cell-based, human; details: HGF-1, FAC 20, 50 and 100 μM, 48 hours, FIG. 7
Experimental: (§1) MMP inhibition was tested using CMK and deferoxamine (DES). Ferric ammonium citrate solid (FAC, Amresco) was prepared in 1 mM hydrochloric acid to form a 50 mM stock solution. Iron solutions were freshly made for each experiment and the iron content quantified through a colorimetric assay. Cells were induced with FAC concentrations of 20, 50, and 100 μM, LPS and CMK or a combination, and the cells were allowed to grow in the incubator for 48 hours.
(§2) During the protein extraction, media was collected, flash frozen and saved for later analysis, including Western Blot and ELISA. Cells were washed with cold PBS and lysed with RIPA buffer (150 mM NaCl, 50 mM Tris, 1% Sodium deoxycholate, 1% Triton X-100 and 0.1% SDS). Cells were collected with a cell scraper and centrifuged at 14000 rpms for 30 minutes. The supernatant was collected and assayed for protein concentration. Samples were mixed with 4×SDS loading buffer (40% Glycerol, 8% SDS, 200 mM Tris-HCl, 400 mM dithiothreitol, 0.005% bromophenol blue) for further analysis.
(§3) Gel electrophoresis was conducted using 12% sodium dodecyl sulfate (SDS) and polyacrylamide gels. Equal amounts (30-50 μg) of protein were loaded in each lane and allowed to separate for 1 hour at 150 V.
(§4) Proteins from gels were transferred into 0.45 μm nitrocellulose paper (Bio-Rad) using tris-glycine transfer buffer with 20% methanol using 400 mAmp for 90 minutes. […]

MMP-13 = details: HGF-1, FAC 20, 50 and 100 μM, 48 hours, FIG. 8
Experimental: as §1, §2, §3, §4

MMP-14 = assay: Western blot of MMP-14 in HGF-1 cells treated with FAC, CMK or deferoxamine; format: cell-based, human; details: HGF-1, FAC 20, 50 and 100 μM, 48 hours, FIG. 9
Experimental: as §1, §2, §3, §4

MMP-3 = format: cell-based, human; details: HGF-1 stimulated with FAC 20, 50 and 100 μM, 48 hours, FIG. 11
Experimental: MMP inhibition was tested using CMK and deferoxamine (DES).
The supernatant was collected and assayed for protein concentration.

MMP-9 = assay: Western blot of MMP-9 in HGF-1 cells treated with FAC or deferoxamine; format: cell-based, human; details: HGF-1 stimulated with FAC 20, 50 and 100 μM, 48 hours, FIG. 10
Experimental: as §1, §2, §3, §4

Human MMP-8; MMP8 = details: HGF-1, 100 μM FAC, FIG. 17
Experimental: (§5) Gene expression of MMPs was evaluated after treatment with CMK and deferoxamine. Tissue culture was washed with 1×PBS prior to collection of samples. Cells were lysed and RNA purified using an RNeasy mini kit (Cat #74104) from Qiagen. RNA prep Kit was used according to manufacturer's protocol. All samples were treated with Qiagen DNase (Cat #79254). One microgram of RNA was used for reverse transcription and subsequent SYBR® Green real time PCR for the genes of interest as previously described. Reverse transcription kits (Cat #330401) and SYBR Green real-time PCR master mixes (Cat #330523) were purchased from Qiagen (Louisville, KY).
(§6) The following primers and probes were used: Human MMP-2; MMP2 (Cat #PPH00151B), Human MMP-8; MMP8 (Cat #PPH00908C), Human MMP-13; MMP13 (Cat #PPH00121B), Human MMP-14; MMP14 (Cat #PPH00198C), and Human glyceraldehyde 3-phosphate dehydrogenase; GAPDH (Cat #PPH00150F).
(§7) FIG. 17 is a summary of the qPCR analysis for each MMP.

MMPs = details: HGF-1, 100 μM FAC, FIG. 17
Experimental: as §5, §6, §7

Compound | Cell viability (HGF-1 cells) | presence of MMP-2 protein (MMP-2) | presence of MMP-13 protein (MMP-13) | presence of MMP-14 protein (MMP-14) | MMP-3 protein expression (MMP-3) | MMP-9 protein expression (MMP-9) | MMP-8 gene expression (qPCR) (Human MMP-8; MMP8) | gene expression of the MMPs (qPCR) (MMPs)
CC(=O)N(O)CCCCCNC(=O)CCC(=O)N(O)CCCCCNC(=O)CCC(=O)N(O)CCCCCN [deferoxamine] | unaffected | – | – | – | – | – | – | –
Ferric ammonium citrate [FAC] | – | dose-dependent increased presence | dose-dependent increased presence | dose-dependent increased presence | increased expression | increased expression | except for MMP-8 | acted as an inducer of gene expression of the MMPs
